Results from patent US20150218212A1, “FLUORINATED EPOXYKETONE-BASED TETRAPEPTIDE COMPOUNDS AND USES THEREOF AS PROTEASOME INHIBITORS” (FLUORINOV PHARMA INC., priority 2012, published 2015).

How the values were obtained:
Format in all cases: cell-based, human
SNB-75 = test: NCI screening panel, SNB-75 (CNS Cancer)
Experimental: (§1) Representative compounds of Formula I were screened using the National Cancer Institute (NCI) screening panel, which consists of a panel of human tumor cell lines, representing leukemia, melanoma, and cancers of the lung, colon, ovary, breast, prostate and renal system.
(§2) After 24 h, two plates of each cell line are fixed in situ with TCA, to represent a measurement of the cell population for each cell line at the time of drug addition (Tz). Experimental drugs are solubilised in dimethyl sulfoxide at 400-fold the desired final maximum test concentration and stored frozen prior to use. At the time of drug addition, an aliquot of frozen concentrate is thawed and diluted to twice the desired final maximum test concentration with complete medium containing 50 μg/mL gentamicin. Additional four, 10-fold or ½ log serial dilutions are made to provide a total of five drug concentrations plus control. Aliquots of 100 μl of these different drug dilutions are added to the appropriate microtiter wells already containing 100 μl of medium, resulting in the required final drug concentrations.
(§3) Following drug addition, the plates are incubated for an additional 48 h at 37° C., 5% CO2, 95% air, and 100% relative humidity. For adherent cells, the assay is terminated by the addition of cold TCA (trichloroacetic acid). Cells are fixed in situ by the gentle addition of 50 μl of cold 50% (w/v) TCA (final concentration, 10% TCA) and incubated for 60 minutes at 4° C. The supernatant is discarded, and the plates are washed five times with tap water and air dried. Sulforhodamine B (SRB) solution (100 μl) at 0.4% (w/v) in 1% acetic acid is added to each well, and plates are incubated for 10 minutes at room temperature. After staining, unbound dye is removed by washing five times with 1% acetic acid and the plates are air dried. Bound stain is subsequently solubilised with 10 mM trizma base, and the absorbance is read on an automated plate reader at a wavelength of 515 nm. For suspension cells, the methodology is the same except that the assay is terminated by fixing settled cells at the bottom of the wells by gently adding 50 μl of 80% TCA (final concentration, 16% TCA). Using the seven absorbance measurements [time zero, (Tz), control growth, (C), and test growth in the presence of drug at the five concentration levels (Ti)], the percentage growth is calculated at each of the drug concentrations levels. Percentage growth inhibition is calculated as: [(Ti−Tz)/(C−Tz)]×100 for concentrations for which Ti>/=Tz and [(Ti−Tz)/Tz]×100 for concentrations for which Ti<Tz.
(§4) Three dose response parameters are calculated for each experimental agent. Growth inhibition of 50% (GI50) is calculated from [(Ti−Tz)/(C−Tz)]×100=50, which is the drug concentration resulting in a 50% reduction in the net protein increase (as measured by SRB staining) in control cells during the drug incubation. The drug concentration resulting in total growth inhibition (TGI) is calculated from Ti=Tz. The LC50 (concentration of drug resulting in a 50% reduction in the measured protein at the end of the drug treatment as compared to that at the beginning) indicating a net loss of cells following treatment is calculated from [(Ti−Tz)/Tz]×100=−50. Values are calculated for each of these three parameters if the level of activity is reached. However, if the effect is not reached or is exceeded, the value for that parameter is expressed as greater or less than the maximum or minimum concentration tested.

786-0 = test: NCI screening panel, 786-0 (Renal Cancer)
Experimental: as §1, §2, §3, §4

NCI/ADR-RES = test: NCI screening panel, NCI/ADR-RES (Ovarian Cancer)
Experimental: as §1, §2, §3, §4

MDA-MB-231/ATCC = test: NCI screening panel, MDA-MB-231/ATCC (Breast Cancer)
Experimental: as §1, §2, §3, §4

UACC-257 = test: NCI screening panel, UACC-257 (Melanoma)
Experimental: as §1, §2, §3, §4

SW-620 = test: NCI screening panel, SW-620 (Colon Cancer)
Experimental: as §1, §2, §3, §4

KM12 = test: NCI screening panel, KM12 (Colon Cancer)
Experimental: as §1, §2, §3, §4

MDA-MB-468 = test: NCI screening panel, MDA-MB-468 (Breast Cancer)
Experimental: as §1, §2, §3, §4

U251 = test: NCI screening panel, U251 (CNS Cancer)
Experimental: as §1, §2, §3, §4

T-47D = test: NCI screening panel, T-47D (Breast Cancer)
Experimental: as §1, §2, §3, §4

| Compound | Log10GI50 (SNB-75) | Log10LC50 (SNB-75) | Log10TGI50 (SNB-75) | Log10GI50 (786-0) | Log10LC50 (786-0) | Log10TGI50 (786-0) | Log10GI50 (NCI/ADR-RES) | Log10LC50 (NCI/ADR-RES) | Log10TGI50 (NCI/ADR-RES) | Log10GI50 (MDA-MB-231/ATCC) | Log10LC50 (MDA-MB-231/ATCC) | Log10TGI50 (MDA-MB-231/ATCC) | Log10GI50 (UACC-257) | Log10LC50 (UACC-257) | Log10TGI50 (UACC-257) | Log10GI50 (SW-620) | Log10LC50 (SW-620) | Log10TGI50 (SW-620) | Log10GI50 (KM12) | Log10LC50 (KM12) | also measured |
| --- | --- | --- | --- | --- | --- | --- | --- | --- | --- | --- | --- | --- | --- | --- | --- | --- | --- | --- | --- | --- | --- |
| CC(C)C[C@H](NC(=O)[C@H](COC(F)F)NC(=O)CN1CCOCC1)C(=O)N[C@@H](COC(F)F)C(=O)N[C@@H](CC(C)C)C(=O)[C@@]1(C)CO1 [Example 1, (2S)—N-[(1S)-1-(difluoromethoxymethyl)-2-[[(1S)-3-methyl-1-[(2R)-2-methyloxirane-2-carbonyl]butyl]amino]-2-oxo-ethyl]-2-[[(2S)-3-(difluoromethoxy)-2-[(2-morpholinoacetyl)amino]propanoyl]amino]-4-methyl-pentanamide] | −7.66 | −5.88 | −7.29 | −6.60 | −5.05 | −5.84 | −5.10 | >−4.00 | >−4.00 | −7.52 | >−4.00 | −6.76 | −7.01 | >−4.00 | −5.62 | −7.54 | >−4.00 | −5.43 | −7.76 | −7.10 | Log10TGI50 (KM12): −7.43; Log10GI50 (MDA-MB-468): −7.55; Log10LC50 (MDA-MB-468): >−4.00; Log10TGI50 (MDA-MB-468): −6.89; Log10GI50 (U251): −7.58; Log10LC50 (U251): >−4.00; Log10TGI50 (U251): −6.75; Log10GI50 (T-47D): −7.94; Log10LC50 (T-47D): −7.11; Log10TGI50 (T-47D): −7.53 |
| CC(C)C[C@H](NC(=O)[C@H](COC(F)F)NC(=O)CN1CCOCC1)C(=O)N[C@@H](Cc1ccccc1)C(=O)N[C@@H](CC(C)C)C(=O)[C@@]1(C)CO1 [Example 2, (2S)-N-[(1S)-1-benzyl-2-[[(1S)-3-methyl-1-[(2R)-2-methyloxirane-2-carbonyl]butyl]-amino]-2-oxo-ethyl]-2-[[(2S)-3-(difluoromethoxy)-2-[(2-morpholinoacetyl)amino]propanoyl]amino]-4-methyl-pentanamide] | −7.75 | −5.91 | −7.30 | −7.09 | >−4.00 | −6.01 | −5.80 | >−4.00 | >−4.00 | −7.63 | −4.37 | −6.79 | −7.23 | −4.58 | −6.43 | <−8.00 | >−4.00 | −5.92 | −7.85 | −7.01 | Log10TGI50 (KM12): −7.43; Log10GI50 (MDA-MB-468): −7.75; Log10LC50 (MDA-MB-468): −4.63; Log10TGI50 (MDA-MB-468): −7.13; Log10GI50 (U251): −7.72; Log10LC50 (U251): −5.63; Log10TGI50 (U251): −6.87; Log10GI50 (T-47D): <−8.00; Log10TGI50 (T-47D): −7.55 |
| CC(C)C[C@H](NC(=O)[C@H](COC(F)F)NC(=O)CN1CCOCC1)C(=O)N[C@@H](Cc1ccccc1)C(=O)N[C@@H](Cc1ccccc1)C(=O)[C@@]1(C)CO1 [Example 3, (2S)-N-[(1S)-1-benzyl-2-[[(1S)-1-benzyl-2-[(2R)-2-methyloxiran-2-yl]-2-oxo-ethyl]amino]-2-oxo-ethyl]-2-[[(2S)-3-(difluoromethoxy)-2-[(2-morpholinoacetyl)-amino]propanoyl]amino]-4-methyl-pentan-amide] | −7.66 | −4.61 | −7.11 | −7.22 | −4.14 | −5.77 | −5.86 | >−4.00 | >−4.00 | <−8.00 | −4.81 | −7.08 | −7.23 | −4.53 | −6.40 | <−8.00 | −4.27 | −6.63 | <−8.00 | −7.16 | Log10TGI50 (KM12): −7.74; Log10GI50 (MDA-MB-468): <−8.00; Log10LC50 (MDA-MB-468): −6.09; Log10TGI50 (MDA-MB-468): −7.34; Log10GI50 (U251): <−8.00; Log10LC50 (U251): −5.14; Log10TGI50 (U251): −6.79; Log10GI50 (T-47D): <−8.00; Log10TGI50 (T-47D): −7.59 |
| CC(C)C[C@H](NC(=O)[C@H](COC(F)F)NC(=O)CN1CCOCC1)C(=O)N[C@@H](COC(F)F)C(=O)N[C@@H](Cc1ccccc1)C(=O)[C@@]1(C)CO1 [Example 4, (2S)-N-[(1S)-2-[[(1S)-1-benzyl-2-[(2R)-2-methyloxiran-2-yl]-2-oxo-ethyl]amino]-1-(difluoromethoxymethyl)-2-oxo-ethyl]-2-[[(2S)-3-(difluoromethoxy)-2-[(2-mor-pholinoacetyl)amino]propanoyl]amino]-4 methyl-pentanamide] | −7.70 | −6.25 | −7.25 | −6.44 | −4.27 | −5.58 | −5.19 | >−4.00 | >−4.00 | −7.45 | −4.14 | −6.37 | −6.71 | −4.14 | −6.11 | −7.43 | −4.40 | −5.98 | −7.70 | −6.44 | Log10TGI50 (KM12): −7.29; Log10GI50 (MDA-MB-468): −7.35; Log10LC50 (MDA-MB-468): >−4.00; Log10TGI50 (MDA-MB-468): −6.37; Log10GI50 (U251): −7.44; Log10LC50 (U251): −4.62; Log10TGI50 (U251): −6.48; Log10GI50 (T-47D): −7.68; Log10TGI50 (T-47D): −7.08 |
| CC(C)C[C@H](NC(=O)[C@H](COC(F)F)NC(=O)[C@H](COC(F)F)NC(=O)[C@H](CCc1ccccc1)NC(=O)CN1CCOCC1)C(=O)[C@@]1(C)CO1 [Example 7, (2S)-N-[(1S)-1-(difluoromethoxymethyl)-2-[[(1S)-1-(difluoromethoxymethyl)-2-[[(1S)-3-methyl-1-[(2R)-2-methyloxirane-2-carbo-nyl]butyl]amino]-2-oxo-ethyl]amino]-2-oxo-ethyl]-2-[(2-morpholinoacetyl)amino]-4-phenyl-butanamide] | −7.65 | −4.01 | −7.16 | −6.45 | >−4.00 | −5.33 | −5.16 | >−4.00 | >−4.00 | −7.64 | −4.92 | −7.14 | −6.80 | >−4.00 | −6.03 | −7.61 | >−4.00 | −5.63 | −7.78 | −7.11 | Log10TGI50 (KM12): −7.45; Log10GI50 (MDA-MB-468): −7.58; Log10LC50 (MDA-MB-468): −4.78; Log10TGI50 (MDA-MB-468): −7.09; Log10GI50 (U251): −7.63; Log10LC50 (U251): −5.04; Log10TGI50 (U251): −6.79; Log10GI50 (T-47D): −7.85; Log10LC50 (T-47D): >−4.00; Log10TGI50 (T-47D): −7.32 |
